Laboratory results reported in ChEMBL document CHEMBL1201862, “PubChem BioAssay data set” (2004).
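In this assay, cells in 96-well plates receive the compound at five concentrations for 48 hours. Endpoints are linearly interpolated between the surrounding concentrations. Abbreviation: GI50, concentration required for 50% inhibition of growth.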 The source made the active and inactive calls. Rule as the data show it: active = GI50 up to about 1.1 µM and inactive = higher.

Experiments:
Assay in all cases: DTP human tumour cell line panel, 48 h
UACC-257 = test system: UACC-257
Hs-578T = test system: Hs-578T
SK-MEL-5 = test system: SK-MEL-5
A549 = test system: A549
RPMI-8226 = test system: RPMI-8226
NCI-H23 = test system: NCI-H23
NCI/ADR-RES = test system: NCI/ADR-RES
SF-539 = test system: SF-539
SF-295 = test system: SF-295
HCC 2998 = test system: HCC 2998
OVCAR-3 = test system: OVCAR-3
CAKI-1 = test system: CAKI-1
HCT-15 = test system: HCT-15
NCI-H522 = test system: NCI-H522
RXF 393 = test system: RXF 393
HL-60 = test system: HL-60
SW-620 = test system: SW-620
LOX IMVI = test system: LOX IMVI
PC-3 = test system: PC-3
K562 = test system: K562

Compound | GI50 (UACC-257) | GI50 (Hs-578T) | GI50 (SK-MEL-5) | GI50 (A549) | GI50 (RPMI-8226) | GI50 (NCI-H23) | GI50 (NCI/ADR-RES) | GI50 (SF-539) | GI50 (SF-295) | GI50 (HCC 2998) | GI50 (OVCAR-3) | GI50 (CAKI-1) | GI50 (HCT-15) | GI50 (NCI-H522) | GI50 (RXF 393) | GI50 (HL-60) | GI50 (SW-620) | GI50 (LOX IMVI) | GI50 (PC-3) | GI50 (K562)
C=CCN(c1cc(O)c2c(c(C)cn2S(=O)(=O)c2ccccc2)c1[N+](=O)[O-])S(C)(=O)=O | > 100 µM (inactive) | > 100 µM (inactive) | 51.4 µM (inactive) | 56.5 µM (inactive) | 61.2 µM (inactive) | > 100 µM (inactive) | > 100 µM (inactive) | > 100 µM (inactive) | 48.5 µM (inactive) | > 100 µM (inactive) | 65.5 µM (inactive) | > 100 µM (inactive) | > 100 µM | 65.9 µM (inactive) | 56 µM (inactive) | > 100 µM (inactive) | > 100 µM (inactive) | 69.2 µM (inactive) | > 100 µM (inactive) | 38.5 µM (inactive)
Nc1cc2c3c(cccc3c1)NC2=O | > 100 µM (inactive) | > 100 µM (inactive) | 92.3 µM (inactive) | 69.2 µM (inactive) | > 100 µM (inactive) | 79.8 µM (inactive) | > 100 µM (inactive) | 80.7 µM (inactive) | > 100 µM (inactive) | > 100 µM (inactive) | > 100 µM (inactive) | 24.6 µM (inactive) | > 100 µM | 3.64 µM (inactive) | > 100 µM (inactive) | > 100 µM (inactive) | 82.4 µM (inactive) | 51.4 µM (inactive) | > 100 µM (inactive) | > 100 µM (inactive)
O=C(O)c1ccc(C=C2Sc3ccccc3S2)cc1 | 54.5 µM (inactive) | 24 µM (inactive) | 51.6 µM (inactive) | 43.2 µM (inactive) | 63.7 µM (inactive) | > 100 µM (inactive) | 59.3 µM (inactive) | > 100 µM (inactive) | 33.5 µM (inactive) | 8.07 µM (inactive) | 30.3 µM (inactive) | 45.3 µM (inactive) | 37.2 µM | 26.1 µM (inactive) | 54.5 µM (inactive) | 35 µM (inactive) | > 100 µM (inactive) | 52 µM (inactive) | 50.7 µM (inactive) | 70.5 µM (inactive)
O=C1C(c2c(O)[nH]c3ccc(Br)cc23)=Nc2ccccc21 | 24.2 µM (inactive) | 12.9 µM (inactive) | 4.01 µM (inactive) | 4.07 µM (inactive) | 8.79 µM (inactive) | 12.4 µM (inactive) | 17.7 µM (inactive) |  | 15.5 µM (inactive) | 3.79 µM (inactive) | 10.6 µM (inactive) | 2.65 µM (inactive) | 5.41 µM | 14.7 µM (inactive) | 2.39 µM (inactive) | 96.2 µM (inactive) | 12.7 µM (inactive) | 8.55 µM (inactive) | 5 µM (inactive) | 5.62 µM (inactive)
Cc1nn(C(=O)c2ccc(Cl)cc2)c2c1C(c1ccc([N+](=O)[O-])cc1)SC(=N)N2 (configuration not stated) | > 10 µM (inactive) | > 10 µM (inactive) | > 10 µM (inactive) | > 10 µM (inactive) | > 10 µM (inactive) | > 10 µM (inactive) | > 10 µM (inactive) | > 10 µM (inactive) | > 10 µM (inactive) | > 10 µM (inactive) | > 10 µM (inactive) | > 10 µM (inactive) | > 10 µM | > 10 µM (inactive) | > 10 µM (inactive) | > 10 µM (inactive) | > 10 µM (inactive) | > 10 µM (inactive) | > 10 µM (inactive) | > 10 µM (inactive)
COC12c3ccccc3-c3ccccc3C1[C@@H](C(=O)O)[C@H]2C(=O)O (some centres not stated) | > 10 µM (inactive) | > 10 µM (inactive) | > 10 µM (inactive) |  | > 10 µM (inactive) | > 10 µM (inactive) | > 10 µM (inactive) | > 10 µM (inactive) | > 10 µM (inactive) | > 10 µM (inactive) | > 10 µM (inactive) | > 10 µM (inactive) | > 10 µM | > 10 µM (inactive) | > 10 µM (inactive) | > 10 µM (inactive) | > 10 µM (inactive) | > 10 µM (inactive) | > 10 µM (inactive) | > 10 µM (inactive)
Cc1ccc(-c2nc(N/N=C/C=C/c3ccccc3)c3ccccc3n2)cc1 | 34 µM (inactive) | > 100 µM (inactive) | 14.8 µM (inactive) | 34.4 µM (inactive) | > 100 µM (inactive) | 44.1 µM (inactive) | 72.9 µM (inactive) | 55.5 µM (inactive) | 23.2 µM (inactive) | 28.4 µM (inactive) | 31.6 µM (inactive) | 38.8 µM (inactive) | 48.4 µM | 21.3 µM (inactive) | 26.2 µM (inactive) | > 100 µM (inactive) | 29.1 µM (inactive) | 48.6 µM (inactive) | 28.6 µM (inactive) | > 100 µM (inactive)
CC(NC(=O)OCc1ccccc1)NC(=O)OC(C)(C)C (configuration not stated) | > 100 µM (inactive) | > 100 µM (inactive) | > 100 µM (inactive) | > 100 µM (inactive) | 51.6 µM (inactive) | > 100 µM (inactive) | > 100 µM (inactive) | > 100 µM (inactive) | > 100 µM (inactive) | > 100 µM (inactive) | > 100 µM (inactive) | > 100 µM (inactive) | > 100 µM | > 100 µM (inactive) | 1.24 µM (inactive) | > 100 µM (inactive) | > 100 µM (inactive) | > 100 µM (inactive) | > 100 µM (inactive) | > 100 µM (inactive)
Cc1cc2c(cc1C)[n+]([O-])c(C(=O)/C=C/c1ccc3c(c1)OCO3)c(C)[n+]2[O-] | > 88.7 µM (inactive) | 26.2 µM (inactive) | > 100 µM (inactive) | > 92.9 µM (inactive) | > 100 µM (inactive) | 38.3 µM (inactive) | 74.6 µM (inactive) | 56.4 µM (inactive) | 21.1 µM (inactive) | > 78.5 µM (inactive) | > 86.1 µM (inactive) | 61.1 µM (inactive) | > 100 µM | 27.6 µM (inactive) | 28.7 µM (inactive) | > 100 µM (inactive) | > 100 µM (inactive) | 36.7 µM (inactive) | > 100 µM (inactive) | > 100 µM (inactive)
COc1cc(O)c(C(=O)/C=C/c2ccccc2)c(OC)c1 [FLAVOKAWAIN B] | 10.8 µM (inactive) | 3.2 µM (inactive) | 9.27 µM (inactive) | 10.3 µM (inactive) | 3.85 µM (inactive) | 5.97 µM (inactive) | 3.8 µM (inactive) | 3.78 µM (inactive) | 13 µM (inactive) | 2.97 µM (inactive) | 7.1 µM (inactive) | 5.28 µM (inactive) | 4.51 µM | 2.42 µM (inactive) | 12.5 µM (inactive) | 1.21 µM (inactive) | 3.85 µM (inactive) | 2.29 µM (inactive) | 6.1 µM (inactive) | 
O=C(CC(=O)N1N=C(N(c2ccccc2)c2ccccc2)CC1c1ccccc1)Nc1ccccc1 (configuration not stated) | > 100 µM (inactive) | 42.5 µM (inactive) | > 100 µM (inactive) | > 100 µM (inactive) | > 100 µM (inactive) | > 100 µM (inactive) | > 100 µM (inactive) | > 100 µM (inactive) | 66.7 µM (inactive) | > 100 µM (inactive) | > 100 µM (inactive) | > 100 µM (inactive) | > 100 µM | 64.1 µM (inactive) | 49.8 µM (inactive) | > 100 µM (inactive) | > 100 µM (inactive) |  | > 100 µM (inactive) | > 100 µM (inactive)
COc1ccc(C(=O)C#Cc2cnc(OC)nc2OC)cc1 | 2.09 µM (inactive) | 4.07 µM (inactive) | 1.34 µM (inactive) | 4.17 µM (inactive) | 1.93 µM (inactive) | 1.48 µM (inactive) | 1.82 µM (inactive) |  | 12.4 µM (inactive) | 1.84 µM (inactive) | 1.68 µM (inactive) | 1.19 µM (inactive) | 1.02 µM | 1.39 µM (inactive) | 1.87 µM (inactive) | 1.63 µM (inactive) | 0.571 µM (active) | 0.147 µM (active) | 1.26 µM (inactive) | 0.367 µM (active)
CCCC1C(CC)C(NC)C(C#N)(C#N)C1(C#N)C#N (configuration not stated) | 16.7 µM (inactive) | 25.9 µM (inactive) | 12.1 µM (inactive) | 34.8 µM (inactive) | 17.1 µM (inactive) | 21.4 µM (inactive) | 17.9 µM (inactive) | 16.8 µM (inactive) | 17.2 µM (inactive) | 18 µM (inactive) |  | 11.4 µM (inactive) | 13.2 µM | 13.9 µM (inactive) | 13.1 µM (inactive) | 20.4 µM (inactive) | 36.8 µM (inactive) | 16.3 µM (inactive) | 18.1 µM (inactive) | 23.7 µM (inactive)
Cc1ccccc1/N=N/c1ccc(N/N=C2/CCCNC2=O)c(C)c1 | > 100 µM (inactive) | > 100 µM (inactive) | 45.2 µM (inactive) | 68.1 µM (inactive) | > 100 µM (inactive) | > 100 µM (inactive) | > 100 µM (inactive) |  | > 100 µM (inactive) | > 100 µM (inactive) |  | > 100 µM (inactive) | > 100 µM | 31.2 µM (inactive) | > 100 µM (inactive) | 8.55 µM (inactive) | > 100 µM (inactive) | > 100 µM (inactive) | > 100 µM (inactive) | > 100 µM (inactive)
